The results in this text go back to patent publication US9932350B2, “Inhibitors of IRAK4 activity” (MERCK SHARP & DOHME CORP., priority 2014, dated 2018).

The structures appear in SMILES notation.

Sequence of GST tagged IRAK4 (Q9NWZ3 whole entry): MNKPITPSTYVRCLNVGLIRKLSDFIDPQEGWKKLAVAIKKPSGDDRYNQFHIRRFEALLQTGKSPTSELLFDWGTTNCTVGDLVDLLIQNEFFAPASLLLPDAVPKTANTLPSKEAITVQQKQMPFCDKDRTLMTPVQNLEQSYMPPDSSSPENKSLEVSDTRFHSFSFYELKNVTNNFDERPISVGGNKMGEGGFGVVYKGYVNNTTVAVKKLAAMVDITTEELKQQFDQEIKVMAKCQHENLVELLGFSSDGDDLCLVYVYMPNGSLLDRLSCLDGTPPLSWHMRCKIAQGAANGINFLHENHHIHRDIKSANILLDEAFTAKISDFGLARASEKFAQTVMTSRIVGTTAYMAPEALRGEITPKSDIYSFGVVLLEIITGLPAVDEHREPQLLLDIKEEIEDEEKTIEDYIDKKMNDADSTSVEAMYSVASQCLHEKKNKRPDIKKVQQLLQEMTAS

The assay has as its target GST tagged IRAK4 (Homo sapiens (Human), UniProt Q9NWZ3). Put plainly: IRAK4 Kinase Assay (IMAP fluorescence polarization). Format: biochemical. The following applies: 0.5 nM GST tagged IRAK4, 100 μM ATP, 30 minutes at 25° C. Put shortly:
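GST-tagged IRAK4 (0.5 nM) phosphorylates 100 nM fluorescent peptide with 100 μM ATP in 10 mM Tris pH 7.2, 1 mM MgCl2, 1 mM DTT, 0.01% Tween 20 for 30 min at 25 °C. Phosphorylation read as IMAP nanoparticle-binding fluorescence polarization after stop reagent.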
For orientation: Polarisation of emitted light reports the rotation of a fluorescent probe.
Consider `N#Cc1ccc2ncnc(N[C@H]3CC[C@H](N4CCN(C(=O)CF)CC4)CC3)c2c1` [Example 6-19, 4-({trans-4-[4-(fluoroacetyl)piperazin-1-yl]cyclohexyl}amino) quinazoline-6-carbonitrile], for which the IC50 amounted to 23 nM. `N#Cc1ccc2ncnc(N[C@H]3CC[C@H](N4CCN(C(=O)C(O)C5CC5)CC4)CC3)c2c1` (stereo partly drawn) [Example 6-20, 4-[(trans-4-{4-[cyclopropyl(hydroxy)acetyl]piperazin-1-yl}cyclohexyl)amino] quinazoline-6-carbonitrile] gave an IC50 of 8 nM. The compound `N#Cc1ccc2ncnc(N[C@H]3CC[C@H](N4CCN(C(=O)C5CC(O)C5)CC4)CC3)c2c1` (stereo partly drawn) [Example 6-21, 4-[(trans-4-{4-[(3-hydroxycyclobutyl)carbonyl]piperazin-1-yl}cyclohexyl)amino] quinazoline-6-carbonitrile] showed a half-inhibitory concentration (IC50) of 10 nM. The IC50 values of the last two compounds are within 1.5-fold of each other.

For the compound `N#Cc1ccc2ncnc(N[C@H]3CC[C@H](N4CCN(C(=O)CCO)CC4)CC3)c2c1` [Example 6-22, 4-({trans-4-[4-(3-hydroxypropanoyl)piperazin-1-yl]cyclohexyl}amino) quinazoline-6-carbonitrile], the IC50 was 9 nM. For the compound `N#Cc1ccc2ncnc(N[C@H]3CC[C@H](N4CCN(C(=O)[C@H]5CCCO5)CC4)CC3)c2c1` [Example 6-23, 4-[(trans-4-{4-[(2R)-tetrahydrofuran-2-ylcarbonyl]piperazin-1-yl}cyclohexyl)amino] quinazoline-6-carbonitrile], the IC50 worked out at 17 nM. This IC50 lies about 1.9-fold higher than the previous one. In the case of `C[C@]1(Nc2ncnc3ccc(C#N)cc23)CC[C@H](N2CCOCC2)CC1` [Example 7-1, 4-{[Trans-1-methyl-4-(morpholin-4-yl)cyclohexyl]amino}quinazoline-6-carbonitrile] it was 98 nM. As to `C[C@]1(Nc2ncnc3ccc(C#N)cc23)CC[C@H](N2CCC(F)CC2)CC1` [Example 7-2, 4-{[trans-4-(4-fluoropiperidin-1-yl)-1-methylcyclohexyl]amino} quinazoline-6-carbonitrile], the IC50 turned out to be 74 nM. The value for `C[C@]1(Nc2ncnc3ccc(C#N)cc23)CC[C@H](N2CCC(O)C2)CC1` (stereo partly drawn) [Example 7-3, 4-{[trans-4-(3-hydroxypyrrolidin-1-yl)-1-methylcyclohexyl]amino} quinazoline-6-carbonitrile] was 43 nM. In the case of `N#Cc1ccc2ncnc(N[C@H]3CC[C@H](N4CCC(F)CC4)[C@@H]4C[C@@H]43)c2c1` [Example 7-4, 4-{[(1S,2S,5S,6R)-5-(4-fluoropiperidin-1-yl)bicyclo[4.1.0]hept-2-yl]amino}quinazoline-6-carbonitrile] it was 7 nM.

The term IC50 denotes the concentration that gives 50% inhibition. Low readings indicate higher potency, high ones lower potency.
